# Reference: ChEMBL document CHEMBL3885881, “DrugMatrix”
# Species on record: Rattus norvegicus
# Assay: DrugMatrix - Regimen: Daily Repeat
# Format: toxicity, organism-based, Sprague-Dawley
# Design: regimen Daily Repeat, gender Male, age 6-8 weeks
# Settings: in vivo, po, route oral GAVAGE, vehicle .5 % CMC; for ABSOLUTE BASOPHIL / ABSOLUTE EOSINOPHIL / ABSOLUTE LYMPHOCYTE / ABSOLUTE MONOCYTE / ABSOLUTE SEGMENTED NEUTROPHIL / BASOPHIL / EOSINOPHIL / ERYTHROCYTE COUNT / HEMATOCRIT / HEMOGLOBIN / LEUKOCYTE COUNT / LYMPHOCYTE / MEAN CORPUSCULAR HEMOGLOBIN / MEAN CORPUSCULAR HEMOGLOBIN CONCENTRATION / MEAN CORPUSCULAR VOLUME / MONOCYTE / NEUTROPHIL / NUCLEATED RED BLOOD CELLS / PLATELET COUNT: tissue Blood; for ALANINE AMINOTRANSFERASE / ALBUMIN / ALKALINE PHOSPHATASE / ASPARTATE AMINOTRANSFERASE / BLOOD UREA NITROGEN / CARBON DIOXIDE / CHLORIDE / CHOLESTEROL / CREATINE PHOSPHOKINASE / CREATININE / GLUCOSE / LACTATE DEHYDROGENASE / LIPASE / PHOSPHORUS / POTASSIUM / SODIUM / TOTAL BILIRUBIN / TOTAL PROTEIN / URIC ACID: tissue Plasma
# [1] = 29 mg/kg, 120 h, dose level Low, time 5 day
# [2] = 400 mg/kg, 72 h, dose level High, time 3 day
# [3] = 400 mg/kg, 120 h, dose level High, time 5 day
compound,measurement,setting,value
NC(=O)NC(=O)Cc1ccccc1 [PHENACEMIDE],ABSOLUTE BASOPHIL,[1],0 CELLS/uL
same,ABSOLUTE EOSINOPHIL,[1],29.33 CELLS/uL
same,ABSOLUTE LYMPHOCYTE,[1],6627.33 CELLS/uL
same,ABSOLUTE MONOCYTE,[1],106 CELLS/uL
same,ABSOLUTE SEGMENTED NEUTROPHIL,[1],904 CELLS/uL
same,BASOPHIL,[1],0%
same,EOSINOPHIL,[1],0.33%
same,ERYTHROCYTE COUNT,[1],5.3 x10E6/uL
same,HEMATOCRIT,[1],32%
same,HEMOGLOBIN,[1],12.6 G/DL
same,LEUKOCYTE COUNT,[1],7.67 x10E3/uL
same,LYMPHOCYTE,[1],86%
same,MEAN CORPUSCULAR HEMOGLOBIN,[1],23.8 pg
same,MEAN CORPUSCULAR HEMOGLOBIN CONCENTRATION,[1],39.37 G/DL
same,MEAN CORPUSCULAR VOLUME,[1],60.37 fL
same,MONOCYTE,[1],1.33%
same,NEUTROPHIL,[1],12.33%
same,NUCLEATED RED BLOOD CELLS,[1],0 /100WBC
same,PLATELET COUNT,[1],1108.33 x10E3/uL
same,ALANINE AMINOTRANSFERASE,[1],42.67 u/L
same,ALBUMIN,[1],4.13 G/DL
same,ALKALINE PHOSPHATASE,[1],433.33 u/L
same,ASPARTATE AMINOTRANSFERASE,[1],75.33 u/L
same,BLOOD UREA NITROGEN,[1],15.33 mg/dL
same,CARBON DIOXIDE,[1],25.67 mmol/L
same,CHLORIDE,[1],102.33 MEQ/L
same,CHOLESTEROL,[1],82.67 mg/dL
same,CREATINE PHOSPHOKINASE,[1],189.67 u/L
same,CREATININE,[1],0.28 mg/dL
same,GLUCOSE,[1],176.33 mg/dL
same,LACTATE DEHYDROGENASE,[1],163.33 u/L
same,LIPASE,[1],10 u/L
same,PHOSPHORUS,[1],11.93 mg/dL
same,POTASSIUM,[1],5.88 MEQ/L
same,SODIUM,[1],145.3 MEQ/L
same,TOTAL BILIRUBIN,[1],0.1 mg/dL
same,TOTAL PROTEIN,[1],6.07 G/DL
same,URIC ACID,[1],1.5 mg/dL
same,ABSOLUTE BASOPHIL,[2],0 CELLS/uL
same,ABSOLUTE EOSINOPHIL,[2],62.33 CELLS/uL
same,ABSOLUTE LYMPHOCYTE,[2],7750.67 CELLS/uL
same,ABSOLUTE MONOCYTE,[2],54.67 CELLS/uL
same,ABSOLUTE SEGMENTED NEUTROPHIL,[2],1099 CELLS/uL
same,BASOPHIL,[2],0%
same,EOSINOPHIL,[2],0.67%
same,ERYTHROCYTE COUNT,[2],5.14 x10E6/uL
same,HEMATOCRIT,[2],31.23%
same,HEMOGLOBIN,[2],11.97 G/DL
same,LEUKOCYTE COUNT,[2],8.97 x10E3/uL
same,LYMPHOCYTE,[2],86.67%
same,MEAN CORPUSCULAR HEMOGLOBIN,[2],23.33 pg
same,MEAN CORPUSCULAR HEMOGLOBIN CONCENTRATION,[2],38.33 G/DL
same,MEAN CORPUSCULAR VOLUME,[2],60.87 fL
same,MONOCYTE,[2],0.67%
same,NEUTROPHIL,[2],12%
same,NUCLEATED RED BLOOD CELLS,[2],0.67 /100WBC
same,PLATELET COUNT,[2],1052.67 x10E3/uL
same,ALANINE AMINOTRANSFERASE,[2],54 u/L
same,ALBUMIN,[2],4.33 G/DL
same,ALKALINE PHOSPHATASE,[2],480.33 u/L
same,ASPARTATE AMINOTRANSFERASE,[2],86 u/L
same,BLOOD UREA NITROGEN,[2],17 mg/dL
same,CARBON DIOXIDE,[2],30 mmol/L
same,CHLORIDE,[2],104 MEQ/L
same,CHOLESTEROL,[2],77.67 mg/dL
same,CREATINE PHOSPHOKINASE,[2],137.33 u/L
same,CREATININE,[2],0.47 mg/dL
same,GLUCOSE,[2],160.67 mg/dL
same,LACTATE DEHYDROGENASE,[2],98.33 u/L
same,LIPASE,[2],11 u/L
same,PHOSPHORUS,[2],13.1 mg/dL
same,POTASSIUM,[2],5.91 MEQ/L
same,SODIUM,[2],148.57 MEQ/L
same,TOTAL BILIRUBIN,[2],0.13 mg/dL
same,TOTAL PROTEIN,[2],6 G/DL
same,URIC ACID,[2],1.17 mg/dL
same,ABSOLUTE BASOPHIL,[3],0 CELLS/uL
same,ABSOLUTE EOSINOPHIL,[3],0 CELLS/uL
same,ABSOLUTE LYMPHOCYTE,[3],9516.67 CELLS/uL
same,ABSOLUTE MONOCYTE,[3],47 CELLS/uL
same,ABSOLUTE SEGMENTED NEUTROPHIL,[3],1103 CELLS/uL
same,BASOPHIL,[3],0%
same,EOSINOPHIL,[3],0%
same,ERYTHROCYTE COUNT,[3],5.74 x10E6/uL
same,HEMATOCRIT,[3],34.53%
same,HEMOGLOBIN,[3],13.23 G/DL
same,LEUKOCYTE COUNT,[3],10.67 x10E3/uL
same,LYMPHOCYTE,[3],88.67%
same,MEAN CORPUSCULAR HEMOGLOBIN,[3],23.07 pg
same,MEAN CORPUSCULAR HEMOGLOBIN CONCENTRATION,[3],38.33 G/DL
same,MEAN CORPUSCULAR VOLUME,[3],60.23 fL
same,MONOCYTE,[3],0.33%
same,NEUTROPHIL,[3],11%
same,NUCLEATED RED BLOOD CELLS,[3],0 /100WBC
same,PLATELET COUNT,[3],1161.33 x10E3/uL
same,ALANINE AMINOTRANSFERASE,[3],47 u/L
same,ALBUMIN,[3],4.43 G/DL
same,ALKALINE PHOSPHATASE,[3],491.67 u/L
same,ASPARTATE AMINOTRANSFERASE,[3],84.33 u/L
same,BLOOD UREA NITROGEN,[3],22 mg/dL
same,CARBON DIOXIDE,[3],24.67 mmol/L
same,CHLORIDE,[3],105 MEQ/L
same,CHOLESTEROL,[3],64 mg/dL
same,CREATINE PHOSPHOKINASE,[3],157 u/L
same,CREATININE,[3],0.73 mg/dL
same,GLUCOSE,[3],176.33 mg/dL
same,LACTATE DEHYDROGENASE,[3],96.33 u/L
same,LIPASE,[3],8.67 u/L
same,PHOSPHORUS,[3],12.63 mg/dL
same,POTASSIUM,[3],6.59 MEQ/L
same,SODIUM,[3],146.77 MEQ/L
same,TOTAL BILIRUBIN,[3],0.1 mg/dL
same,TOTAL PROTEIN,[3],5.97 G/DL
same,URIC ACID,[3],1.8 mg/dL
